In PubChem BioAssay AID1553 (Sanford-Burnham Center for Chemical Genomics, 2009) one finds fold increase 3H incorporation data, which are given here for 71 molecules.

Where “and” joins values, the source holds several entries; their conditions need not be identical. Equal entries are not always repeated. Calls of active or inactive are those of the source.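 Rule for the calls: active = compounds graded as giving a low, moderate or strong rise in tritium labelling of cell protein versus solvent control; inactive = the rest.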

In this experiment the test system is HeLa cells, 3H-mannose incorporation into glycoproteins. The experiment in a line: 3H-mannose glycoprotein labeling increase in HeLa – HeLa cells, orthogonal assay for PMI inhibitor project, late-stage follow-up (AID 1553).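 Note: 1 fold = DMSO treated HeLa control cells; higher fold signals phosphomannose isomerase inhibition routing mannose into glycosylation.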
Setting [1] is: fold increase, at 25 µM, stronger effect = higher value.

Regarding `COc1cc(N=c2ssnc2Cl)cc(OC)c1OC`, the fold increase 3H incorporation by setting is: (at 100 µM) 1.2 (inactive); under setting [1], 1.1.
Consider `O=c1c2ccccc2sn1-c1nccs1`, for which the fold increase 3H incorporation is 1 (inactive) (at 100 µM) and 0.9 under setting [1].
For `Cc1ccc(C)c(-n2sc3ccccc3c2=O)c1`, the fold increase 3H incorporation (at 100 µM) is 1.5 and the fold increase 3H incorporation under setting [1] was found to be 1.4.
`COc1ccc(-c2nc(=S)[nH][nH]2)cc1OC`: the fold increase 3H incorporation (at 100 µM) is 0.8 (inactive).
In the case of `O=[N+]([O-])c1ccc(N=c2ssnc2Cl)c([N+](=O)[O-])c1`, the fold increase 3H incorporation (at 100 µM) was 1.5.
For `O=c1c2ccccc2sn1-c1ccccc1`, the fold increase 3H incorporation is 1 (at 100 µM) and 1.1 under setting [1].
On to `O=[N+]([O-])c1ccc(N=c2ssnc2Cl)c2ccccc12`, for which the fold increase 3H incorporation (at 100 µM) is 0.4 and the fold increase 3H incorporation under setting [1] came out at 0.5.
Consider `Clc1nss/c1=N\c1nncs1`, for which the fold increase 3H incorporation reads like this: (at 100 µM) 0.5 (inactive); under setting [1], 0.9.
The corresponding values for `COc1cccc(-n2sc3ccccc3c2=O)c1` are 1.4 and 0.8.
Take `Cc1ccc(-n2sc3ccccc3c2=O)cc1S(=O)(=O)N1CCCCC1`: the fold increase 3H incorporation (at 100 µM) was 1.4 and the fold increase 3H incorporation under setting [1] came out at 1.2.
As to `Cc1ccc(C=Nn2c(-c3ccncc3)n[nH]c2=S)cc1`, the fold increase 3H incorporation (at 100 µM) was 1 (inactive).
With `Cc1cccc(N=c2ssnc2Cl)c1`, the fold increase 3H incorporation reads like this: (at 100 µM) 0.7; under setting [1], 1.6.
The corresponding values for `Cc1c(Cl)cccc1-n1sc2cc([N+](=O)[O-])cc(OCC(F)(F)F)c2c1=O` are 1.1 (inactive) and 1.4.
In the case of `O=C(O)CCn1cc(C=C2C(=O)NC(=S)NC2=O)c(-c2cccc(Br)c2)n1`, for the setting “at 100 µM”, the fold increase 3H incorporation was 0.8 (inactive).
For the molecule `Cc1ccc(C)n1-c1nc(=S)[nH][nH]1`, the fold increase 3H incorporation (at 100 µM) was 1 (inactive).
As for `Clc1nssc1=Nc1ccc(Br)cc1`, the fold increase 3H incorporation (at 100 µM) was 0.5 and the fold increase 3H incorporation under setting [1] worked out at 3.6.
As for `Clc1nss/c1=N\c1nc2ccccc2s1`, the fold increase 3H incorporation reads like this: (at 100 µM) 0.1 (inactive); under setting [1], 0.7.
For `COc1cc([N+](=O)[O-])ccc1N=c1ssnc1Cl`, the fold increase 3H incorporation runs as follows: (at 100 µM) 1.4; under setting [1], 1.3.
The corresponding values for `CN(C)c1cccc(N=c2ssnc2Cl)c1` are 0.2 (inactive) and 0.3.
For `O=c1c2ccccc2sn1-c1ccc(Cl)c(S(=O)(=O)N2CCOCC2)c1` the same measures were 1.2 (inactive) and 1.
For the molecule `O=c1c2c([N+](=O)[O-])cc([N+](=O)[O-])cc2sn1-c1ccc(F)cc1`, the fold increase 3H incorporation reads like this: (at 100 µM) 0.8 (inactive); under setting [1], 0.9.
`CN(C)c1cccc(-n2sc3ccccc3c2=O)c1`: the fold increase 3H incorporation was 1.1 (inactive) (at 100 µM) and 1.3 under setting [1].
With `CCOc1ccc(-c2nc(=S)[nH][nH]2)cc1`, the fold increase 3H incorporation (at 100 µM) was 0.7 (inactive).
In the case of `COc1ccc(N=c2ssnc2Cl)cc1OC`, the fold increase 3H incorporation is, setting by setting: (at 100 µM) 0.1 (inactive); under setting [1], 0.3.
Take `Cc1ccc(N=c2ssnc2Cl)c([N+](=O)[O-])c1`: the fold increase 3H incorporation is 3.2 (at 100 µM) and 1.5 under setting [1].
For `O=C(O)c1ccccc1NS(=O)(=O)c1cccc(-n2sc3ccccc3c2=O)c1` the same measures were 0 (inactive) and 0.2.
As to `Clc1nssc1=Nc1ccccc1`, the fold increase 3H incorporation runs as follows: (at 100 µM) 1.9; under setting [1], 1.2.
For `O=c1c2cc(F)ccc2sn1-c1ccccc1` the same measures were 1.6 and 2.3.
Take `Cc1ccc(C)c(-n2sc3ccc(F)cc3c2=O)c1`: the fold increase 3H incorporation is 1 (at 100 µM) and 2.9 under setting [1].
For `CN(C)S(=O)(=O)c1cccc(-n2sc3ccccc3c2=O)c1` the same measures were 1.1 and 1.1.
As to `COc1cc(N=c2ssnc2Cl)cc(OC)c1`, the fold increase 3H incorporation by setting is: (at 100 µM) 1.9; under setting [1], 1.1.
With `O=c1c2ccccc2sn1-c1ccc(F)cc1`, the fold increase 3H incorporation by setting is: (at 100 µM) 2.5; under setting [1], 2.5.
As for `Cc1ccc(N=c2ssnc2Cl)cc1C`, the fold increase 3H incorporation by setting is: (at 100 µM) 0.8 (inactive); under setting [1], 0.8.
With `O=c1c2ccccc2sn1-c1cc(S(=O)(=O)N2CCOCC2)ccc1N1CCOCC1`, the fold increase 3H incorporation runs as follows: (at 100 µM) 0.4 (inactive); under setting [1], 0.8.
As for `COC(=O)c1cccc(-n2sc3ccccc3c2=O)c1`, the fold increase 3H incorporation by setting is: (at 100 µM) 1.7; under setting [1], 1.5.
Turning to `S=c1nc(-c2cccc(Br)c2)[nH][nH]1`, the fold increase 3H incorporation (at 100 µM) is 0.9 (inactive).
Consider `Cc1[nH]n(-c2ccccc2)c(=S)c1C=Nc1cccc([N+](=O)[O-])c1`, for which the fold increase 3H incorporation (at 100 µM) is 0.7 (inactive).
`Cc1ccc(C)c(N2Cc3ccccc3C2=O)c1`: the fold increase 3H incorporation was 1.2 (inactive) (at 100 µM) and 1.1 under setting [1].
As for `Cc1ccc(C)c(-n2[nH]c3ccccc3c2=O)c1`, the fold increase 3H incorporation by setting is: (at 100 µM) 0.8 (inactive); under setting [1], 0.9.
Take `O=c1c2c([N+](=O)[O-])cc([N+](=O)[O-])cc2sn1-c1ccccc1F`: the fold increase 3H incorporation (at 100 µM) is 0.9 (inactive) and the fold increase 3H incorporation under setting [1] came out at 0.9.
As to `O=c1c2ccc(O)cc2sn1C1CCCC1`, the fold increase 3H incorporation is 0.8 (inactive) (at 100 µM) and 1.1 under setting [1].
`O=c1c2ccccc2sn1-c1cccc(S(=O)(=O)Nc2ccc(Cl)cc2)c1`: the fold increase 3H incorporation was 0.7 (inactive) (at 100 µM) and 0.4 under setting [1].
In the case of `Cc1ccc(N=c2ssnc2Cl)cc1[N+](=O)[O-]`, the fold increase 3H incorporation was 0.2 (at 100 µM) and 2.1 under setting [1].
For the molecule `Clc1ccc(N=c2ssnc2Cl)cc1Cl`, the fold increase 3H incorporation is, setting by setting: (at 100 µM) 0.1 (inactive); under setting [1], 0.1.
On to `O=c1c2ccccc2sn1-c1cccc(Cl)c1`, for which the fold increase 3H incorporation was 0.6 (at 100 µM) and 3.4 under setting [1].
As for `CCc1cc(CC)c(N=c2ssnc2Cl)c(CC)c1`, the fold increase 3H incorporation is 0.2 (at 100 µM) and 0.3 under setting [1].
For `Clc1cccc(N=c2ssnc2Cl)c1` the same measures were 0.4 and 1.7.
In the case of `S=c1nc(C2COc3ccccc3O2)[nH][nH]1` (centres undefined), the fold increase 3H incorporation (at 100 µM) is 0.8 (inactive).
In the case of `COc1cc(N=c2ssnc2Cl)c(OC)cc1Cl`, the fold increase 3H incorporation (at 100 µM) was 1.9 and the fold increase 3H incorporation under setting [1] worked out at 1.2.
Consider `Clc1ccc(N=c2ssnc2Cl)cc1`, for which the fold increase 3H incorporation is, setting by setting: (at 100 µM) 0.2 (inactive); under setting [1], 1.1.
As to `Cc1ccnc(-n2sc3ccccc3c2=O)n1`, the fold increase 3H incorporation is, setting by setting: (at 100 µM) 1 (inactive); under setting [1], 0.9.
As for `O=c1c2ccccc2sn1-c1ccc(Cl)cc1`, the fold increase 3H incorporation by setting is: (at 100 µM) 0.6; under setting [1], 3.4.
Consider `FC(F)(F)c1ccc(N=c2ssnc2Cl)cc1`, for which the fold increase 3H incorporation was 0.3 (at 100 µM) and 1.4 under setting [1].
For `Cc1ccc(N=c2ssnc2Cl)nc1` the same measures were 0 and 1.2.
Regarding `N#CC1=C2SCN(Cc3ccccc3)CN2C(=O)CC1c1ccc2c(c1)OCO2` (centres undefined), the fold increase 3H incorporation (at 100 µM) is 1 (inactive).
Turning to `O=C(O)c1cccc(-n2sc3ccccc3c2=O)c1`, the fold increase 3H incorporation runs as follows: (at 100 µM) 0.5 (inactive); under setting [1], 0.5.
For `Cc1ccc(C)c(-n2sc3cc(F)ccc3c2=O)c1`, the fold increase 3H incorporation by setting is: (at 100 µM) 0.6; under setting [1], 1.4.
For the molecule `Clc1nss/c1=N\c1nccs1`, the fold increase 3H incorporation was 1 (inactive) (at 100 µM) and 1.1 under setting [1].
Regarding `S=c1nc(-c2cccc(Cl)c2)[nH][nH]1`, the fold increase 3H incorporation (at 100 µM) is 1 (inactive).
Take `O=C(NCc1ccccc1)c1cccc(-n2sc3ccccc3c2=O)c1`: the fold increase 3H incorporation (at 100 µM) was 1.2 (inactive) and the fold increase 3H incorporation under setting [1] is 1.2.
For the molecule `Cc1ccc(N=c2ssnc2Cl)cc1`, the fold increase 3H incorporation (at 100 µM) is 1.6 and the fold increase 3H incorporation under setting [1] is 1.1.
With `S=c1nc(-c2ccccc2Br)[nH][nH]1`, under “at 100 µM”, the fold increase 3H incorporation was 0.9 (inactive).
Take `N#Cc1ccc(N=c2ssnc2Cl)cc1`: the fold increase 3H incorporation runs as follows: (at 100 µM) 1.1 (inactive); under setting [1], 1.
The corresponding values for `O=c1c2ccccc2sn1-c1cccc(I)c1` are 0.7 and 3.4.
On to `O=c1c2ccc(F)cc2sn1-c1cc(Cl)ccc1Cl`, for which the fold increase 3H incorporation is 0.8 (inactive) (at 100 µM) and 1 under setting [1].
Take `OCc1ccccc1N=c1ssnc1Cl`: the fold increase 3H incorporation is 0.9 (inactive) (at 100 µM) and 0.9 under setting [1].
As for `COc1cc(-c2nc(=S)[nH][nH]2)cc(OC)c1OC`, the fold increase 3H incorporation (at 100 µM) was 0.8 (inactive).
On to `CN(C)c1ccc(N=c2ssnc2Cl)cc1`, for which the fold increase 3H incorporation (at 100 µM) is 1 (inactive) and the fold increase 3H incorporation under setting [1] was determined as 0.8.
In the case of `Cc1ccc(-n2sc3ccccc3c2=O)cc1`, the fold increase 3H incorporation is, setting by setting: (at 100 µM) 1 (inactive) and 0.6 (inactive); under setting [1], 1.1 and 1.2.
With `COc1ccc2c(=O)n(C3CCCC3)sc2c1`, the fold increase 3H incorporation (at 100 µM) was 0 (inactive) and the fold increase 3H incorporation under setting [1] worked out at 0.9.
Turning to `Oc1ccc(N=c2ssnc2Cl)cc1`, the fold increase 3H incorporation by setting is: (at 100 µM) 0.7 (inactive); under setting [1], 0.8.
